From ChEMBL document CHEMBL4052712, “Design and optimization of highly-selective, broad spectrum fungal CYP51 inhibitors” (Bioorg Med Chem Lett, 2017)
Active and inactive are the calls of the source. No cut-off for these calls is given here.

What was measured:
[1] = biological target: Lanosterol 14-alpha demethylase (Candida albicans (strain SC5314 / ATCC MYA-2876) (Yeast), UniProt P10613); assay: Inhibition of CYP51 in Candida albicans assessed as inhibition of microbe growth incubated for 48 hrs by CLSI M27-A3 guideline based method
[2] = biological target: Lanosterol 14-alpha demethylase (Aspergillus) (UniProt B8NUK6+Q9P8R0+G4WW85); assay: Inhibition of CYP51 in Aspergillus fumigatus assessed as inhibition of microbe growth incubated for 48 to 168 hrs by CLSI M27-A3 guideline based method
[3] = biological target: Cytochrome P450 3A4 (Homo sapiens, UniProt P08684); assay: Inhibition of CYP3A4 in human hepatocyte microsomes using testosterone substrate by HPLC/MS/MS method; format: ADME
Cytochrome P450 3A4, sequence (P08684 whole entry): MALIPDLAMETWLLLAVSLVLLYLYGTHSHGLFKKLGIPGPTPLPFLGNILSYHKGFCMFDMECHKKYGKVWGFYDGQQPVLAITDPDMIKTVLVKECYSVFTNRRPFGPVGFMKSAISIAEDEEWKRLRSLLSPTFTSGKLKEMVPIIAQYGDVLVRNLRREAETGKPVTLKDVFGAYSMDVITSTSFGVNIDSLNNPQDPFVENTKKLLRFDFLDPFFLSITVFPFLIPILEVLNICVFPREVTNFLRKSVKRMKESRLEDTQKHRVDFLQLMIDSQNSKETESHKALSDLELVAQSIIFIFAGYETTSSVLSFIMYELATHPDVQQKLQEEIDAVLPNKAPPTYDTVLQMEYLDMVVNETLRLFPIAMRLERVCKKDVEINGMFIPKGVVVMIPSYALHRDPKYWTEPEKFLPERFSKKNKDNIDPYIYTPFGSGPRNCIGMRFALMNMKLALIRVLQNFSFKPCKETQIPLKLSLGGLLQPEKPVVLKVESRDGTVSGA

Lanosterol 14-alpha demethylase, sequence (P10613 whole entry): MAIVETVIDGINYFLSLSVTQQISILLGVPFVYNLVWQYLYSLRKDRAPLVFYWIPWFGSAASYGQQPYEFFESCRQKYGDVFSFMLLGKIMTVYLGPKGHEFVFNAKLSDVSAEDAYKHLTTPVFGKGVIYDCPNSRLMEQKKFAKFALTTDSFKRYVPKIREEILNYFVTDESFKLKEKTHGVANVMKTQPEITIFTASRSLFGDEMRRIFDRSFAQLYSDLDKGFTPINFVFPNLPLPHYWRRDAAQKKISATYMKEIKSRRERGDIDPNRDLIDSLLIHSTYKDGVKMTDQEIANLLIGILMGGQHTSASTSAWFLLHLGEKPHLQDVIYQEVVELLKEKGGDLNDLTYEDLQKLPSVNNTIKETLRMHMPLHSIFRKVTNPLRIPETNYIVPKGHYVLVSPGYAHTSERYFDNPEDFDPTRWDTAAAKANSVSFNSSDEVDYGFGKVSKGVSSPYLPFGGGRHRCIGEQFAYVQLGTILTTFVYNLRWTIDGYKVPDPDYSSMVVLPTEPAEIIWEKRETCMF

Compound	MIC50 [1]	MIC100 [2]	IC50 [3]
OC(Cn1cnnn1)(c1ccc(F)cc1F)C(F)(F)c1ccc(C#Cc2ccc(C(F)(F)F)cc2)cn1 (centres undefined)	0.016 µg/mL	> 64 µg/mL	> 200 µM
OC(Cn1cnnn1)(c1ccc(F)cc1F)C(F)(F)c1ccc(C#Cc2ccc(OCC(F)F)cc2)cn1 (centres undefined)	< 0.001 µg/mL	64 µg/mL	60 µM
OC(Cn1cnnn1)(c1ccc(F)cc1F)C(F)(F)c1ccc(C#Cc2ccc(OCc3ccc(F)cc3)cc2)cn1 (centres undefined)	0.0625 µg/mL	32 µg/mL	> 200 µM
N#Cc1cccc(COc2ccc(C#Cc3ccc(C(F)(F)C(O)(Cn4cnnn4)c4ccc(F)cc4F)nc3)cc2)c1 (centres undefined)	0.016 µg/mL	> 64 µg/mL	> 200 µM
CNC(=O)c1ccc(COc2ccc(C#Cc3ccc(C(F)(F)C(O)(Cn4cnnn4)c4ccc(F)cc4F)nc3)cc2)cc1 (centres undefined)	0.031 µg/mL	> 64 µg/mL	122 µM
OC(Cn1cnnn1)(c1ccc(F)cc1F)C(F)(F)c1ccc(C#Cc2cccc(Cl)c2)cn1 (centres undefined)	0.031 µg/mL	> 64 µg/mL	> 200 µM
N#Cc1ccc(COc2ccc(C#Cc3ccc(C(F)(F)C(O)(Cn4cnnn4)c4cc(F)ccc4F)nc3)cc2)cc1 (centres undefined)	0.016 µg/mL	> 64 µg/mL	> 200 µM
OC(Cn1cnnn1)(c1ccc(F)cc1F)C(F)(F)c1ccc(C#Cc2ccc(OCc3ccc(OC(F)(F)F)cc3)cc2)cn1 (centres undefined)	0.25 µg/mL	> 64 µg/mL	> 200 µM
N#Cc1ccc(COc2ccc(C#Cc3ccc(C(F)(F)C(O)(Cn4cnnn4)c4ccc(Cl)cc4F)nc3)cc2)cc1 (centres undefined)	0.031 µg/mL	> 64 µg/mL	> 200 µM
N#Cc1ccc(OCc2ccc(C#Cc3ccc(C(F)(F)C(O)(Cn4cnnn4)c4ccc(F)cc4F)nc3)cc2)cc1 (centres undefined)	0.031 µg/mL	> 64 µg/mL	> 200 µM
OC(Cn1cnnn1)(c1ccc(F)cc1F)C(F)(F)c1ccc(C#Cc2ccc(Cl)cc2)cn1 (centres undefined)	0.004 µg/mL	> 64 µg/mL	> 200 µM
OC(Cn1cnnn1)(c1ccc(F)cc1F)C(F)(F)c1ccc(C#Cc2ccc(NCC(F)(F)F)cc2)cn1 (centres undefined)	< 0.001 µg/mL	4 µg/mL	10 µM
OC(Cn1cnnn1)(c1ccc(F)cc1F)C(F)(F)c1ccc(C#Cc2ccc(OCc3ccc(C(F)(F)F)cc3)cc2)cn1 (centres undefined)	0.125 µg/mL	> 64 µg/mL	> 200 µM
OC(Cn1cnnn1)(c1ccc(F)cc1F)C(F)(F)c1ccc(C#Cc2cccc(F)c2)cn1 (centres undefined)	0.004 µg/mL	> 64 µg/mL	> 200 µM
N#Cc1ccc(COc2ccc(C#Cc3ccc(C(F)(F)C(O)(Cn4cnnn4)c4ccc(F)cc4F)nc3)cc2)c(F)c1 (centres undefined)	0.16 µg/mL	> 64 µg/mL	> 200 µM
OC(Cn1cnnn1)(c1ccc(F)cc1F)C(F)(F)c1ccc(C#Cc2ccc(OCc3ccc(CC(F)F)cc3)cc2)cn1 (single isomer, unassigned; (+)) [listing 1 of 2 here]	0.031 µg/mL		> 200 µM

Compound	MIC50 [1]	MIC100 [2]	IC50 [3]
OC(Cn1cnnn1)(c1ccc(F)cc1F)C(F)(F)c1ccc(C#Cc2ccc(F)cc2)cn1 (single isomer, unassigned; (+)) [listing 1 of 2 here]	< 0.001 µg/mL		198 µM
N#Cc1ccc(COc2ccc(C#Cc3ccc(C(F)(F)C(O)(Cn4cnnn4)c4ccc(F)cc4F)nc3)cc2)cc1F (single isomer, unassigned; (+)) [listing 1 of 2 here]	0.004 µg/mL		> 200 µM
N#Cc1ccc(COc2ccc(C#Cc3ccc(C(F)(F)C(O)(Cn4cnnn4)c4ccc(F)cc4F)nc3)cc2)cc1F (single isomer, unassigned; (+)) [listing 2 of 2 here]		0.5 µg/mL	
OC(Cn1cnnn1)(c1ccc(F)cc1F)C(F)(F)c1ccc(C#Cc2ccc(F)cc2)cn1 (single isomer, unassigned; (+)) [listing 2 of 2 here]		16 µg/mL	
OC(Cn1cnnn1)(c1ccc(F)cc1F)C(F)(F)c1ccc(C#Cc2ccc(OCc3ccc(CC(F)F)cc3)cc2)cn1 (single isomer, unassigned; (+)) [listing 2 of 2 here]		2 µg/mL	
OC(Cn1cnnn1)(c1ccc(F)cc1F)C(F)(F)c1ccc(C#Cc2ccc(F)cc2)cn1 (single isomer, unassigned; (-))		inactive	
OC(Cn1cnnn1)(c1ccc(F)cc1F)C(F)(F)c1ccc(C#Cc2ccc(F)cc2)cn1 (stereo in doubt; 6a) [listing 1 of 2 here]			100 µM
OC(Cn1cnnn1)(c1ccc(F)cc1F)C(F)(F)c1ccc(C#Cc2ccc(F)cc2)cn1 (stereo in doubt; 6a) [listing 2 of 2 here]		> 64 µg/mL	
OC(Cn1cnnn1)(c1ccc(F)cc1F)C(F)(F)c1ccc(C#Cc2ccc(OCc3ccc(CC(F)F)cc3)cc2)cn1 (stereo in doubt; 7e) [listing 1 of 2 here]	0.0625 µg/mL		> 200 µM
OC(Cn1cnnn1)(c1ccc(F)cc1F)C(F)(F)c1ccc(C#Cc2ccc(OCc3ccc(CC(F)F)cc3)cc2)cn1 (stereo in doubt; 7e) [listing 2 of 2 here]		4 µg/mL	
N#Cc1ccc(COc2ccc(C#Cc3ccc(C(F)(F)C(O)(Cn4cnnn4)c4ccc(F)cc4F)nc3)cc2)cc1 (stereo in doubt; 7f) [listing 1 of 2 here]	0.031 µg/mL		> 200 µM
N#Cc1ccc(COc2ccc(C#Cc3ccc(C(F)(F)C(O)(Cn4cnnn4)c4ccc(F)cc4F)nc3)cc2)cc1 (stereo in doubt; 7f) [listing 2 of 2 here]		8 µg/mL	
N#Cc1ccc(COc2ccc(C#Cc3ccc(C(F)(F)C(O)(Cn4cnnn4)c4ccc(F)cc4F)nc3)cc2)cc1F (stereo in doubt; 8a) [listing 1 of 2 here]	0.031 µg/mL		> 200 µM
N#Cc1ccc(COc2ccc(C#Cc3ccc(C(F)(F)C(O)(Cn4cnnn4)c4ccc(F)cc4F)nc3)cc2)cc1F (stereo in doubt; 8a) [listing 2 of 2 here]		1 µg/mL	
O[C@@](Cn1cnnn1)(c1ccc(F)cc1F)C(F)(F)c1ccc(-c2ccc(OCC(F)(F)F)cc2)cn1 [OTESECONAZOLE]	< 0.001 µg/mL	> 64 µg/mL	65 µM
